The text below walks through data of patent publication US10786505B2, “Administration of NEDD8-activating enzyme inhibitor and chemotherapeutic agents” (Millennium Pharmaceuticals, Inc., priority 2013, dated 2020).

Common to all, as to format: in vivo, mice
One assay deals with NCI-H82 xenograft model. Nature of the assay: Combination of cisplatin and MLN4924 in NCI-H82 xenograft model. As for the experimental part:
(§1) NCI-H69 or NCI-H82 small cell lung tumor fragments (30- to 40-mg) are implanted into the subcutaneous space in the area of the right flank of NCr nu/nu mice (7-10 weeks, Charles River Laboratories, Inc, Frederick Md. or Wilmington, Mass.) using a 12-gauge trocar.
(§2) Tumors are measured twice weekly using a vernier caliper. Tumor volumes are calculated using standard procedures (0.5×(length×width^2)). […] Tumor size and body weight are measured approximately twice a week for the duration of the study. Mice are euthanized when their tumor volume reached 10% of their body weight, or when the average tumor volume of a treatment or control group reached approximately 2000 mm^3. Tumor growth continued to be monitored after the dosing period in some studies. Average tumor volume is reported as a function of time for selected groups of selected studies in Figures A, B, and C.
(§3) Measurements from day 0 to 18, 21 or 22 are analyzed as specified in Tables 4-9. All tumor volumes have a value of 1 added to them before log10 transformation. For each animal, the log tumor volume at day 0 is subtracted from the log tumor volume on the subsequent days. This difference vs. time is used to calculate an area under the curve (AUC) for each animal using the trapezoid rule. […] The synergy score for the combination of agents A and B is defined as 100*(mean(AUCAB)−mean(AUCA)−mean(AUCB)+mean(AUCctl))/mean(AUCctl): where AUCAB, AUCA, AUCB, and AUCctl are the AUC values for animals in the combination group, the A group, the B group, and the control group, respectively. The standard error of the synergy score is computed based on the variation in the AUC values among the animals. […] If the P-value is above 0.05, then the combination is considered to be additive. If the P-value is below 0.05, and the synergy score is less than zero, then the combination is considered to be synergistic. […] Otherwise, the combination is classified as antagonistic.

The subject of assay [1] is PHTX02B breast xenograft model. Nature of the assay: Combination of docetaxel and MLN4924 in PHTX02B xenograft model. The note with it: for average tumor volume day 21: PHTX02B xenograft.
Text: The PHTX02B breast xenograft model was established from a patient-derived tumor collected during surgery from a person with invasive ductal carcinoma classified as triple negative breast cancer (ER−/PR−/Her2−) by IHC. PHTX02B tumor fragments (approximately 2×2×3 mm^3) are implanted into the subcutaneous space in the right dorsal flank of female SCID-NOD mice (age 5-7 weeks, Jackson Laboratory, Bar Harbor, Me.) using a 13-gauge trocar.
Docetaxel (Henry Schein, Inc., Pittsburgh Pa., Qilu Pharmaceutical Co., Ltd., Jinan, Shandong, China, and Sanofi-Aventis) is formulated in 0.9% saline and administered by intravenous injection (IV) once weekly (QW) at 5 mg/kg or 10 mg/kg.
as §2, §3

The test system of the next assay is NCI-H69 xenograft model. Nature of the assay: Combination of carboplatin and MLN4924 in NCI-H69 xenograft model. The procedure:
as §1
Carboplatin (CARBOplatin Injection, Hospira, Inc., Qilu Pharmaceutical Co., Ltd. Jinan, Shandong, China, and Teva Gry-Pharma GmbH, Ulm, Germany) is formulated in 0.9% saline and administered by IP injection once weekly (QW) at 50 mg/kg. The once weekly schedule is also described as every 7 days (Q7D).
as §2, §3

Consider `NS(=O)(=O)OC[C@@H]1C[C@@H](n2ccc3c(N[C@H]4CCc5ccccc54)ncnc32)C[C@@H]1O` [MLN4924, ((1S,2S,4R)-4-(4-((1S)-2,3-dihydro-1H-inden-1-ylamino)-7H-pyrrolo[2,3-d]-pyrimidin-7-yl)-2-hydroxycyclopentyl)methyl sulfamate], for which the “average tumor volume day 22” value with NCI-H82 xenograft model (60 mg/kg MLN4924 BID Q2Dx3/week SC) is listed as 861.9 mm^3; in the assay with NCI-H82 xenograft model (60 mg/kg MLN4924 BID Q3Dx2/week SC), 783.3 mm^3. The “tumor growth during the treatment period (in words)” value in assay [1] (PHTX02B breast xenograft, FIG. 1, MLN4924 SC 60 mg/kg BID 5 days on/5 days off, docetaxel 5 mg/kg IV QW, single agents or their combination) is on record as “inhibited tumor growth compared to the control vehicle group”; in the assay with NCI-H69 xenograft model (FIG. 3, MLN4924 SC 120 mg/kg BID Q3Dx2/week, carboplatin 50 mg/kg IP QW, single agents or their combination) it was “inhibited tumor growth compared to the control vehicle group”. The “average tumor volume day 21” value in assay [1] (30 mg/kg MLN4924 BID 5 on/5 off SC) amounted to 1110.9 mm^3; in assay [1] (30 mg/kg MLN4924 BID SC), 894.4 mm^3; in assay [1] (60 mg/kg MLN4924 BID 5 on/5 off SC), 532.2 mm^3; with NCI-H69 xenograft model (60 mg/kg MLN4924 BID Q3D x 2/week SC) it was 597.1 mm^3; in the assay with NCI-H69 xenograft model (120 mg/kg MLN4924 BID Q3D x 2/week SC), 415.2 mm^3.
